Experimental findings from US10718769B2, “Compounds comprising one or more hydrophobic domains and a hydrophilic domain comprising peg moieties, useful for binding cells” (Roche Diagnostics Operations, Inc., priority 2013, dated 2020) are described below.

Where “and” joins values, the source holds several entries; their conditions need not be identical. Equal entries are not always repeated. Where two headings read alike, the source gives them in different places.

Experiment [1] deals with Jurkat cells. Conditions: centrifugation 20 min, 500×g; within 5.5 h incubation with molecule. As for the experimental part:
Respective columns from left: 1: 10 min incubation with molecule. 2: 1 h incubation with molecule. 3: 3,5 h incubation with molecule. 4: 5.5 h min incubation with molecule. Following molecules were tested: 1255: 3′-(Myristic acid)2-PEG2000-dT-Biotin-TEG-5′ INVERS. 1234: 5′-(Cholesteryl-TEG)2-Spacer C18-dT-Biotin-TEG-3′; 1248: 3′-(Cholesteryl-TEG)2-PEG2000-Fluos-Biotin-TEG-5′ INVERS; 1254: 3′-(Cholesteryl-TEG)2-SpacerC18-Fluos-Biotin-TEG-5′ INVERS. […] Centrifugation characteristics: 20 min, 500×g.
(§1) Following molecules were tested: • 1255: 3′-(Myristic acid)2-PEG2000-dT-Biotin-TEG-5′ INVERS • 1234: 5′-(Cholesteryl-TEG)2-Spacer C18-dT-Biotin-TEG-3′ • 1248: 3′-(Cholesteryl-TEG)2-PEG2000-Fluos-Biotin-TEG-5′ INVERS • 1254: 3′-(Cholesteryl-TEG)2-SpacerC18-Fluos-Biotin-TEG-5′ INVERS
(§2) Centrifugation characteristics: 20 min, 500×g.

In experiment [2] the test system is MDA-MB468 cells. Conditions: centrifugation 20 min, 500×g; within 5 h incubation with molecule. The method, then:
Respective columns from left: 1: 10 min incubation with molecule. 2: 1 h incubation with molecule. 3: 3 h incubation with molecule. 4: 5 h min incubation with molecule. Following compounds for use according to the invention were tested: 1234: 5′-(Cholesteryl-TEG)2-Spacer C18-dT-Biotin-TEG-3′; 1255: 3′-(Myristic acid)2-PEG2000-dT-Biotin-TEG-5′ INVERS. […] Centrifugation characteristics: 20 min, 500×g.
Following compounds of the invention were tested: • 1234: 5′-(Cholesteryl-TEG)2-Spacer C18-dT-Biotin-TEG-3′ • 1255: 3′-(Myristic acid)2-PEG2000-dT-Biotin-TEG-5′ INVERS
as §2

The test system of experiment [3] is CHO. Description: Labelling of cells using compounds of the invention. The class given is cell-based. The text has this: (§3) 2. Labelling of Cells Using Compounds of the Invention
For experiment [4], the system named is COS 7. The description is as above. The class given is cell-based.
Source text: as §3

For experiment [5], the system named is Epithelial cells. The description is as above. It is filed as cell-based.
Source text: as §3

Experiment [6] has as its system Hela. The experiment is described as above. It is filed as cell-based. Conditions: * one cell stained weakly.
Source text: as §3

Experiment [7] has as its system Jurkats. Described as above. It is filed as cell-based.
Source text: as §3

Experiment [8] has as its system MDA-MB468. Described as above. The class given is cell-based.
Source text: as §3

The subject of experiment [9] is NIH 3T3. Described as above. The class given is cell-based. Conditions: * one cell not stained.
Source text: as §3

Experiment [10] concerns U937. The description is as above. The class given is cell-based.
Source text: as §3

Experiment [11] has as its system WBC. The experiment in a line: WBC recovery rate after centrifugation (stabilization of cells, Example 5). It is filed as cell-based. Conditions: centrifugation 20 min. As for the experimental part:
(§4) Centrifugation characteristics: 10 min, 300×g.
as §4
The respective left, middle and right columns per assay represent different Experimenters 1, 2 and 3. […] Centrifugation characteristics: 10 min, 300×g. Molecule: Cholesteryl-TEG-Cholesteryl-TEG-(SpacerC18)7-Fluos-Biotin-TEG.
Following molecules were tested: 1234: 5′-(Cholesteryl-TEG)2-Spacer C18-dT-Biotin-TEG-3′; 1248: 3′-(Cholesteryl-TEG)2-PEG2000-Fluos-Biotin-TEG-5′ INVERS; 1254: 3′-(Cholesteryl-TEG)2-SpacerC18-Fluos-Biotin-TEG-5′ INVERS; 1255: 3′-(Myristic acid)2-PEG2000-dT-Biotin-TEG-5′ INVERS. […] Centrifugation characteristics: 20 min, 300×g. Respective left column: 10 min incubation with molecule. Respective middle column: 1 h min incubation with molecule. Respective right column: 2 h incubation with molecule.
Following molecules were tested: 1255: 3′-(Myristic acid)2-PEG2000-dT-Biotin-TEG-5′ INVERS; 1234: 5′-(Cholesteryl-TEG)2-Spacer C18-dT-Biotin-TEG-3′; 1248: 3′-(Cholesteryl-TEG)2-PEG2000-Fluos-Biotin-TEG-5′ INVERS; 1254: 3′-(Cholesteryl-TEG)2-SpacerC18-Fluos-Biotin-TEG-5′ INVERS. […] Centrifugation characteristics: 20 min, 500×g. Respective left column: 10 min incubation with molecule. Respective middle column: 1 h min incubation with molecule. Respective right column: 3 h incubation with molecule.
Following molecules were tested: 1255: 3′-(Myristic acid)2-PEG2000-dT-Biotin-TEG-5′ INVERS; 1234: 5′-(Cholesteryl-TEG)2-Spacer C18-dT-Biotin-TEG-3′; 1248: 3′-(Cholesteryl-TEG)2-PEG2000-Fluos-Biotin-TEG-5′ INVERS; 1254: 3′-(Cholesteryl-TEG)2-SpacerC18-Fluos-Biotin-TEG-5′ INVERS. […] Centrifugation characteristics: 20 min, 1000×g. Respective left column: 10 min incubation with molecule. Respective middle column: 1 h min incubation with molecule. Respective right column: 2 h incubation with molecule.
The effect of compounds of the invention on stabilizing cells and on immobilization was determined.
Centrifugation characteristics: 10 min, 300×g. A: Choleseryl-TEG-Cholesteryl-TEG-(SpacerC18)7-Fluos-Biotin-TEG.
Centrifugation characteristics: 10 min, 300×g. Molecule: Cholesteryl-TEG-Cholesteryl-TEG-(SpacerC18)7-Fluos-Biotin-TEG.
Centrifugation characteristics: 20 min, 300×g.
as §1

In experiment [12] the test system is white blood cells (WBCs). Conditions: for WBC per well: 300 000 WBCs/well. The method, then:
Aim of this experiment: Testing of the white blood cell immobilization on a streptavidin-coated surface using different molecules of the invention. In particular, the performance of a single cholesterol-molecule and different dual-linker molecules (i.e. containing two hydrophobic moieties) was tested. In detail, immobilization of white blood cells (WBCs) on a Streptavidin-coated surface using different linker molecules was tested on a 12-well plate: 300 000 WBCs/well. This was followed by the measurement of the cell recovery rate after immobilization and washing of the cells using the Cellavista instrument (10× Nuclei Operator s9s5).

The test system of experiment [13] is WBCs. The experiment in a line: Labelling of cells using compounds of the invention. It is filed as cell-based.
Source text: as §3

For experiment [14], the system named is WBC. The experiment in a line: Immobilization of cells, recovery rate of cells (Example 3 A and D). Conditions: WBCs. The class given is cell-based.
Procedure: In the following experiment, the recovery rate of cells was determined.
Setting [15] is: Sample 2, compound concentration: 100 pmol/10e6 WBCs.
The mark [16] stands for this setting: Sample 2, compound concentration: 1 nmol/10e6 WBCs.

Turning to “5′-(Cholesteryl-TEG)2-Spacer C18-dT-Biotin-TEG-3′ [compound 1234]”, the “Stability of Jurkat culture cells during centrifugation” value in experiment [1] was “stable during centrifugation processes”. Also, in [2], the “Stability of MDA-MB468 culture cells during centrifugation” value was “stable during centrifugation processes”.
In the case of “5′-CholesterylTEG-CholesterylTEG-PEG2000-Fluos-3′ [BMO 29.891133]”, the “Labelling (staining) of CHO” value in [3] is on record as “√”. In addition, in experiment [4], the “Labelling (staining) of COS 7” value is given as “√”. In addition, the “Labelling (staining) of Epithelial cells” value in [5] is listed as “√”. In addition, the “Labelling (staining) of Hela” value in [6] is on record as “√”. Also, in experiment [7], the “Labelling (staining) of Jurkats” value is “√”. The “Labelling (staining) of MDA-MB468” value in [8] is “√”. Moreover, the “Labelling (staining) of NIH 3T3” value in experiment [9] is recorded as “√”. Besides, in experiment [10], the “Labelling (staining) of U937” value is “√”.
For the compound `CCCCCCCCCCCCCCCCCCCCCC[N+]1=C(/C=C/C=C2/N(CCCCCCCCCCCCCC)c3ccccc3C2(C)C)C(C)(C)c2ccccc21.[I-]` [PKH26], the “Labelling (staining) of CHO” value in [3] is “√”. Also, the “Labelling (staining) of COS 7” value in [4] is on record as “√”. Moreover, the “Labelling (staining) of Epithelial cells” value in [5] is reported as “√ not all”. For the same compound, the “Labelling (staining) of Hela” value in [6] is on record as “√*”. The “Labelling (staining) of Jurkats” value in [7] is on record as “√”. Further, the “Labelling (staining) of MDA-MB468” value in experiment [8] is recorded as “√”. The “Labelling (staining) of NIH 3T3” value in experiment [9] is reported as “√”. In addition, in experiment [10], the “Labelling (staining) of U937” value was “√”.
In the case of “3′-(Myristic acid)2-PEG2000-dT-Biotin-TEG-5′ INVERS [compound 1255]”, the “Performance in WBC recovery rate after centrifugation (ranking)” value in [11] (300×g) was “followed by compound 1255”; in experiment [11] (500×g), “followed by molecule 1255”. The “Stability of Jurkat culture cells during centrifugation” value in experiment [1] is recorded as “stable during centrifugation processes”. Moreover, in experiment [2], the “Stability of MDA-MB468 culture cells during centrifugation” value is “stable during centrifugation processes”.
Take `CCCCC/C=C\C/C=C\CCCCCCCCN1C(=CC=CC2=[N+](CCCCCCCC/C=C\C/C=C\CCCCC)c3ccccc3C2(C)C)C(C)(C)c2ccccc21.[O-][Cl+3]([O-])([O-])[O-]` [Linol, 1,1′-dilinoleyl-3,3,3′,3′-tetramethylindocarbocyanine perchlorate]: in [3], the “Labelling (staining) of CHO” value was “√”. Also, the “Labelling (staining) of COS 7” value in [4] is recorded as “√”. Also, the “Labelling (staining) of Epithelial cells” value in experiment [5] was “√”. The “Labelling (staining) of Hela” value in experiment [6] is listed as “√”. For the same compound, the “Labelling (staining) of Jurkats” value in experiment [7] is reported as “√”. The “Labelling (staining) of MDA-MB468” value in experiment [8] is recorded as “√”. In experiment [9], the “Labelling (staining) of NIH 3T3” value is “√”. In [10], the “Labelling (staining) of U937” value is “√”.
Consider “5′-(Cholesteryl-TEG)2-Spacer C18-Fluos-Biotin_TEG-3′ INVERS [29.891254]”, for which the “WBC per well” value was 157660 and 190148 and 170850 in experiment [12] (Sample 1, first block of the table (r4-r12), footnote: 1 nmol/10e6 WBCs); 244649 and 234262 and 260760 in experiment [12] (Sample 1, second block of the table (r13-r21), compound concentration: 1 nmol/10e6 WBCs); 200184 and 205917 and 185100 in [12] (setting [15]); 244396 and 244304 and 247428 in [12] (setting [16]). Further, the “Mean (WBC per well)” value is reported as 197067.00 in [12] (setting [15]) and 245376.00 in experiment [12] (setting [16]). For the same compound, the “Stability of Jurkat culture cells during centrifugation” value in [1] is listed as “stable during centrifugation processes”.
Take `CCCCCCCCCCCCCCCCCCN1C(=CC=CC2=[N+](CCCCCCCCCCCCCCCCCC)c3ccccc3C2(C)C)C(C)(C)c2ccccc21.[O-][Cl+3]([O-])([O-])[O-]` [1,1′-Dioctadecyl-3,3,3′,3′-tetramethylindocarbocyanin perchlorate]: in experiment [3], the “Labelling (staining) of CHO” value is “√”. Further, in experiment [4], the “Labelling (staining) of COS 7” value is recorded as “√”. For the same compound, in experiment [5], the “Labelling (staining) of Epithelial cells” value was “√”. In addition, the “Labelling (staining) of Hela” value in experiment [6] is “√”. In experiment [7], the “Labelling (staining) of Jurkats” value is on record as “√”. Also, in experiment [8], the “Labelling (staining) of MDA-MB468” value is listed as “√”. In experiment [9], the “Labelling (staining) of NIH 3T3” value is on record as “√*”. For the same compound, the “Labelling (staining) of U937” value in experiment [10] was “√”. Also, the “Labelling (staining) of WBCs” value in [13] was “√ not all”.
In the case of “5′-CholesterylTEG-CholesterylTEG-PEG2000-Fluos-BiotinTEG-3′ [BMO 29.891180]”, the “staining (Remarks)” value in experiment [14] was “strong”.
For the compound “3′-(Cholesteryl-TEG)2-PEG2000-Fluos-Biotin-TEG-5′ INVERS [compound 1248]”, in [1], the “Stability of Jurkat culture cells during centrifugation” value is on record as “stable during centrifugation processes”.
